The compounds below were run against WDR5 (Homo sapiens (Human), UniProt P61964) (assay: TR-FRET binding assay (displacement of 10mer-Thr-FAM probe from WDR5)). Details: read-out: Ki for Inhibition of WDR5 by TR-FRET assay.

Structure (SMILES)	Ki [nM]
Cc1ccnc(C(NC(=O)c2cc(Cn3ccn(C)c3=N)cc(-c3ncnc4c3CCCC4)c2)C2CC2)c1 (stereo not shown) [Example 95, N-(Cyclopropyl(4-methylpyridin-2-yl)methyl)-3-((2-imino-3-methyl-2,3-dihydro-1H-imidazol-1-yl)methyl)-5-(5,6,7,8-tetrahydroquinazolin-4-yl)benzamide]	20
Cc1cc([C@@H](NC(=O)c2cc(Cn3ccn(C)c3=N)cc(-c3cncnc3C(F)(F)F)c2)C2CC2)ccc1F [Example 123, (S)—N-(Cyclopropyl(4-fluoro-3-methylphenyl)methyl)-3-((2-imino-3-methyl-2,3-dihydro-1H-imidazol-1-yl)methyl)-5-(4-(trifluoromethyl)pyrimidin-5-yl)benzamide]	0.18
C[C@H](NC(=O)c1cc(Cn2ccn(C)c2=N)cc(-c2cccnc2C(F)(F)F)c1)c1ccc(F)c(Cl)c1 [Example 124, (S)—N-(1-(3-chloro-4-fluorophenyl)ethyl)-3-((2-imino-3-methyl-2,3-dihydro-1H-imidazol-1-yl)methyl)-5-(2-(trifluoromethyl)pyridin-3-yl)benzamide]	1

Same assay, conditions: read-out: Ki for Inhibition of WDR5 by TR-FRET assay; TR-FRET, 10mer-Thr-FAM probe, WDR5-His tag 2 nM, pH 7.0

Structure (SMILES)	Ki [nM]
COc1cc(-c2cc(Cn3ccn(C)c3=N)cc(C(=O)NCc3ccc(Cl)c(Cl)c3)c2)ccn1 [Example 24, N-(3,4-Dichlorobenzyl)-3-((2-imino-3-methyl-2,3-dihydro-1H-imidazol-1-yl)methyl)-5-(2-methoxypyridin-4-yl)benzamide]	25
Cc1ncccc1-c1cc(Cn2ccn(C)c2=N)cc(C(=O)NCc2cncnc2)c1 [Example 40, 3-((2-Imino-3-methyl-2,3-dihydro-1H-imidazol-1-yl)methyl)-5-(2-methylpyridin-3-yl)-N-(pyrimidin-5-ylmethyl)benzamide]	133
COc1cc(CNC(=O)c2cc(Cn3ccn(C)c3=N)cc(-c3cccnc3C)c2)ccn1 [Example 41, 3-((2-Imino-3-methyl-2,3-dihydro-1H-imidazol-1-yl)methyl)-N-((2-methoxypyridin-4-yl)methyl)-5-(2-methylpyridin-3-yl)benzamide]	33
COc1ccnc(CNC(=O)c2cc(Cn3ccn(C)c3=N)cc(-c3cccnc3C)c2)c1 [Example 43, 3-((2-Imino-3-methyl-2,3-dihydro-1H-imidazol-1-yl)methyl)-N-((4-methoxypyridin-2-yl)methyl)-5-(2-methylpyridin-3-yl)benzamide]	8420
COc1cc(CN(C)C(=O)c2cc(Cn3ccn(C)c3=N)cc(-c3ccnc(C)c3)c2)cc(OC)c1 [Example 48, N-(3,5-dimethoxybenzyl)-3-((2-imino-3-methyl-2,3-dihydro-1H-imidazol-1-yl)methyl)-N-methyl-5-(2-methylpyridin-4-yl)benzamide]	26
Cc1cc(-c2cc(Cn3ccn(C)c3=N)cc(C(=O)NC(C3CC3)C3CC3)c2)ccn1 [Example 49, N-(Dicyclopropylmethyl)-3-((2-imino-3-methyl-2,3-dihydro-1H-imidazol-1-yl)methyl)-5-(2-methylpyridin-4-yl)benzamide]	22
Cc1cc(-c2cc(Cn3ccn(C)c3=N)cc(C(=O)NCc3ncc(Cl)cn3)c2)ccn1 [Example 51, N-((5-Chloropyrimidin-2-yl)methyl)-3-((2-imino-3-methyl-2,3-dihydro-1H-imidazol-1-yl)methyl)-5-(2-methylpyridin-4-yl)benzamide]	17
COc1cc(CNC(=O)c2cc(Cn3ccn(C)c3=N)cc(-c3cnc(F)cc3C)c2)cc(OC)c1 [Example 78, N-(3,5-Dimethoxybenzyl)-3-(6-fluoro-4-methylpyridin-3-yl)-5-((2-imino-3-methyl-2,3-dihydro-1H-imidazol-1-yl)methyl)benzamide]	5.9
Cc1cc(CNC(=O)c2cc(Cn3ccn(C)c3=N)cc(-c3cnc(F)cc3C)c2)ccc1Cl [Example 79, N-(4-Chloro-3-methylbenzyl)-3-(6-fluoro-4-methylpyridin-3-yl)-5-((2-imino-3-methyl-2,3-dihydro-1H-imidazol-1-yl)methyl)benzamide]	4.3
Cc1cc(CNC(=O)c2cc(Cn3ccn(C)c3=N)cc(-c3ccc(=O)[nH]c3C)c2)ccc1Cl [Example 80, N-(4-Chloro-3-methylbenzyl)-3-((2-imino-3-methyl-2,3-dihydro-1H-imidazol-1-yl)methyl)-5-(2-methyl-6-oxo-1,6-dihydropyridin-3-yl)benzamide]	20
COc1cc(CNC(=O)c2cc(Cn3ccn(C)c3=N)cc(-c3c[nH]c(=O)cc3C)c2)cc(OC)c1 [Example 81, N-(3,5-Dimethoxybenzyl)-3-((2-imino-3-methyl-2,3-dihydro-1H-imidazol-1-yl)methyl)-5-(4-methyl-6-oxo-1,6-dihydropyridin-3-yl)benzamide]	13
Cc1cc(=O)[nH]cc1-c1cc(Cn2ccn(C)c2=N)cc(C(=O)NCc2ccc(Cl)c(Cl)c2)c1 [Example 82, N-(3,4-dichlorobenzyl)-3-((2-imino-3-methyl-2,3-dihydro-1H-imidazol-1-yl)methyl)-5-(4-methyl-6-oxo-1,6-dihydropyridin-3-yl)benzamide]	20
Cc1cc(CNC(=O)c2cc(Cn3ccn(C)c3=N)cc(-c3c[nH]c(=O)cc3C)c2)ccc1Cl [Example 83, N-(4-Chloro-3-methylbenzyl)-3-((2-imino-3-methyl-2,3-dihydro-1H-imidazol-1-yl)methyl)-5-(4-methyl-6-oxo-1,6-dihydropyridin-3-yl)benzamide]	7.1
Cc1ccccc1-c1cc(Cn2ccn(C)c2=N)cc(C(=O)NCc2ccc(Cl)c(Cl)c2)c1 [Example 92, N-(3,4-dichlorobenzyl)-5-((2-imino-3-methyl-2,3-dihydro-1H-imidazol-1-yl)methyl)-2′-methyl-[1,1′-biphenyl]-3-carboxamide]	0.72
COc1ccnc([C@H](NC(=O)c2cc(Cn3ccn(C)c3=N)cc(-c3ccc(F)cc3C)c2)C2CC2)c1 [Example 93, (R)—N-(Cyclopropyl(4-methoxypyridin-2-yl)methyl)-4′-fluoro-5-((2-imino-3-methyl-2,3-dihydro-1H-imidazol-1-yl)methyl)-2′-methyl-[1,1′-biphenyl]-3-carboxamide]	1.9
Cc1cc([C@@H](NC(=O)c2cc(Cn3ccn(C)c3=N)cc(-c3ncnc4c3CCCC4)c2)C2CC2)ccc1F [Example 94, (S)—N-(Cyclopropyl(4-fluoro-3-methylphenyl)methyl)-3-((2-imino-3-methyl-2,3-dihydro-1H-imidazol-1-yl)methyl)-5-(5,6,7,8-tetrahydroquinazolin-4-yl)benzamide]	36
COc1cc(OC)cc(C(NC(=O)c2cc(Cn3ccn(C)c3=N)cc(-c3ncnc4c3CCCC4)c2)C2CC2)c1 (stereo not shown) [Example 96, N-(Cyclopropyl(3,5-dimethoxyphenyl)methyl)-3-((2-imino-3-methyl-2,3-dihydro-1H-imidazol-1-yl)methyl)-5-(5,6,7,8-tetrahydroquinazolin-4-yl)benzamide]	27
Cc1cc(CNC(=O)c2cc(Cn3ccn(C)c3=N)cc(-c3ccc(F)cc3C(F)(F)F)n2)ccc1Cl [Example 99, N-(4-Chloro-3-methylbenzyl)-6-(4-fluoro-2-(trifluoromethyl)phenyl)-4-((2-imino-3-methyl-2,3-dihydro-1H-imidazol-1-yl)methyl)picolinamide]	1.1
COc1cc(CNC(=O)c2cc(Cn3ccn(C)c3=N)cc(-c3ccc(F)cc3C(F)(F)F)n2)cc(OC)c1 [Example 100, N-(3,5-Dimethoxybenzyl)-6-(4-fluoro-2-(trifluoromethyl)phenyl)-4-((2-imino-3-methyl-2,3-dihydro-1-imidazol-1-yl)methyl)picolinamide]	0.71
Cc1ccnc(C(NC(=O)c2cc(Cn3ccn(C)c3=N)cc(-c3ccc(F)cc3C(F)(F)F)n2)C2CC2)c1 (stereo not shown) [Example 101, N-(Cyclopropyl(4-methylpyridin-2-yl)methyl)-6-(4-fluoro-2-(trifluoromethyl)phenyl)-4-((2-imino-3-methyl-2,3-dihydro-1H-imidazol-1-yl)methyl)picolinamide]	0.45
COC(=O)CC(NC(=O)c1cc(Cn2ccn(C)c2=N)cc(-c2ccc(F)cc2C(F)(F)F)c1F)c1ccc(Cl)c(Cl)c1 (stereo not shown) [Example 110, Methyl 3-(3,4-dichlorophenyl)-3-(2,4′-difluoro-5-((2-imino-3-methyl-2,3-dihydro-1H-imidazol-1-yl)methyl)-2′-(trifluoromethyl)-[1,1′-biphenyl]-3-carboxamido)propanoate]	0.1
Cc1[nH]c(=O)ccc1-c1cc(Cn2ccn(C)c2=N)cc(C(=O)NCc2ccc(Cl)c(Cl)c2)c1 [Example 112, N-(3,4-Cichlorobenzyl)-3-((2-imino-3-methyl-2,3-dihydro-1-imidazol-1-yl)methyl)-5-(2-methyl-6-oxo-1,6-dihydropyridin-3-yl)benzamide]	29
Cc1cc([C@@H](NC(=O)c2cc(Cn3ccn(C)c3=N)cc(-c3cnc(F)cc3C)c2)C2CC2)ccc1F [Example 113, (S)—N-(Cyclopropyl(4-fluoro-3-methylphenyl)methyl)-3-(6-fluoro-4-methylpyridin-3-yl)-5-((2-imino-3-methyl-2,3-dihydro-1H-imidazol-1-yl)methyl)benzamide]	> 33
C[C@H](NC(=O)c1cc(Cn2ccn(C)c2=N)cc(-c2cccnc2C(F)(F)F)c1)c1ccc(C(F)(F)F)cc1 [Example 126, (S)-3-((2-Imino-3-methyl-2,3-dihydro-1H-imidazol-1-yl)methyl)-N-(1-(4-(trifluoromethyl)phenyl)ethyl)-5-(2-(trifluoromethyl)pyridin-3-yl)benzamide]	2.5
Cn1ccn(Cc2cc(C(=O)N[C@H](c3ccc(F)cn3)C3CC3)cc(-c3cccnc3C(F)(F)F)c2)c1=N [Example 128, (S)—N-(Cyclopropyl(5-fluoropyridin-2-yl)methyl)-3-((2-imino-3-methyl-2,3-dihydro-1H-imidazol-1-yl)methyl)-5-(2-(trifluoromethyl)pyridin-3-yl)benzamide]	23

Source: US10844044B2 (Vanderbilt University, priority 2018, dated 2020)
